The text below walks through data of patent publication US8114846B2, “Combined treatment with an EGFR kinase inhibitor and an agent that sensitizes tumor cells to the effects of EGFR kinase inhibitors” (OSI Pharmaceuticals, LLC, priority 2006, dated 2012).

pIC50: −log10 of the molar value. ≈ marks a conversion by molar mass, not a printed value. Entries after “also recorded” stand apart in the source; their conditions may differ.

The subject of data set [1] is tumor cells. Put plainly: Anti-proliferative activity across tumor cell lines. Type of data set: cell-based.
Data set [2] has as its system pAkt (S473). Put plainly: pAkt (S473) in cancer cell lines. Type of data set: cell-based.
Data set [3] has as its system H460 cells. Put plainly: Cell proliferation (Cell Titer Glo), H460. Type of data set: cell-based, human. As for the experimental part:
(§1) The cell lines H460, Calu6, SW1573, H1703, H292, H358, HCT-116, HT-29, FET, GEO, SW480, Colo205 CBS, BxPC3, HPAC, CFPAC, MiaPaca-2, Panc1, MDA-MB-468, BT-20, MDA-MB-435 H441, H322, A1165, Igrov-1, Ovcar-3, CA-OV-3, MDAH2774, SW626, SKOV-3, Cal-27, RPMI 2650, and MDA-MB-231 were grown in media as prescribed by the ATCC, containing 10% FCS. Hsc-2, Hsc-4 and OVK-18 were obtained from the Riken Cell Bank and were cultured according to the Riken Cell Bank recommended conditions.
(In ATP-based viability assays light output follows the ATP content of the culture.)

Data set [4] relates to three ovarian cell lines. Put plainly: Apoptosis (Caspase 3/7 Glo), ovarian cell lines. It counts as cell-based, human. As to conditions: 20 μM Compound A or 10 μM erlotinib. As for the experimental part: as §1
A short description of data set [5]: Solubility limit of erlotinib. It counts as physicochemical.
The test system of data set [6] is H292 cells. Put plainly: Cell proliferation (Cell Titer Glo), H292. Type of data set: cell-based, human. The conditions noted are these: 10 μM erlotinib, 72 hours; maximal growth inhibition greater than 50% = high sensitivity. As for the experimental part:
as §1

The test system of data set [7] is BxPC3 cells. Put plainly: Cell proliferation (Cell Titer Glo), BxPC3. Type of data set: cell-based, human. As to conditions: 10 μM erlotinib, 72 hours; maximal growth inhibition greater than 50% = high sensitivity. The method, then:
as §1

Data set [8] has as its system HCT-116 cells. As to conditions: 10 μM erlotinib, 72 hours; maximal growth inhibition greater than 50% = high sensitivity.
Method: (§2) Measurement of Cell Proliferation: Cell proliferation was determined using the Cell Titer Glo assay (Promega Corporation, Madison, Wisc.). Cell lines were seeded at a density of 3000 cells per well in a 96-well plate. 24 hours after plating cells were dosed with varying concentrations of drug, either as a single agent or in combination. The signal for Cell Titer Glo was determined 72 hours after dosing.
(§3) Analysis of Additivity and Synergy: The Bliss additivism model was used to classify the effect of combining rapamycin and erlotinib as additive, synergistic, or antagonistic. A theoretical curve was calculated for combined inhibition using the equation: Ebliss=EA+EB−EA*EB, where EA and EB are the fractional inhibitions obtained by drug A alone and drug B alone at specific concentrations. […] If the experimentally measured fractional inhibition is less than Ebliss the combination was said to be synergistic. If the experimentally measured fractional inhibition is greater than Ebliss the combination was said to be antagonistic. For dose response curves, the Bliss additivity value was calculated for varying doses of drug A when combined with a constant dose of drug B. This allowed an assessment as to whether drug B affected the potency of drug A or shifted its intrinsic activity. All plots were generated using PRISM® software (Graphpad Software, San Diego, Calif.).
For data set [9], the system named is Calu6 cells. The conditions noted are these: 10 μM erlotinib, 72 hours; maximal growth inhibition greater than 50% = high sensitivity.
Method: as §2, §3
Data set [10] relates to Calu-6 NSCLC tumor cells. Put plainly: Calu6 xenograft model. The conditions noted are these: day 19; Tarceva 100 mg/kg daily oral, or rapamycin 4 mg/kg i.p. day 1, 8, 15. It counts as in vivo, mice. An excerpt:
Female CD-1 nu/nu mice (Charles River Laboratories, Wilmington, Mass.) were implanted with harvested Calu-6 NSCLC tumor cells in a single subcutaneous site on the flank of the mice in the axillary region. Tumors were allowed to grow to 200+50 mm^3, at which time the animals were sorted into treatment groups (see below) of 8 animals per group, having approximately equal body weight (+/−1 g) within a group, and tattooed on the tail for permanent identification. Tumor volumes and body weights were determined twice weekly. The tumor volume was determined by measuring in two directions with vernier calipers and calculated using the formula: Tumor volume=(length×width^2)/2. The data were plotted as the % change in mean values of tumor volume and body weight for each group. The tumor growth inhibition (% TGI) was determined as % TGI=100(1−Wt/Wc): where Wt is the median tumor volume of the treated group at time x and We is the median tumor volume of the control group at time x. Tarceva was dosed in a 6% Captisol (CyDex, Inc) in WFI (Water for Injection) solution and all control animals were dosed with an equal volume of the vehicle. Tarceva animals were dosed by oral gavage once a day for 18 days and the % TGI measured on day 19. Rapamycin was dosed in 4% ethanol/5% PEG400/5% Tween 80 in WFI. […]

The subject of data set [11] is one ovarian and one HNSCC cell line. Put plainly: Apoptosis (Caspase 3/7 Glo), one ovarian and one HNSCC cell line. Type of data set: cell-based, human. As for the experimental part:
as §1

The subject of data set [12] is phosphorylation of S6 (readout for the activity of mTOR). Put plainly: Western blot of S6 phosphorylation in tumor cell lines. It counts as cell-based, human. As to conditions: 2 hours. As for the experimental part: Preparation of Protein Lysates and Western Blotting:
With the exception of total ErbB3 (obtained from Santa Cruz Biotechnology, Inc., Santa Cruz, Calif.), all antibodies were obtained from Cell Signaling Technology, Inc. (Danvers, Mass.). For analysis of erlotinib's effect on the phosphorylation of downstream signaling proteins, cell lines were grown to approximately 70% confluency, at which time erlotinib was added at the indicated concentration, and cells were incubated at 37° C. for two hours. Where indicated, 10 ng/ml EGF ligand was added for 5 minutes. The media was removed, cells were washed two times with PBS, and cells were lysed as previously described.
Background: Immunoblotting shows a protein as a band on a membrane.

The subject of data set [13] is 22 cell lines derived from NSCLC, colon, pancreatic, and breast tumors. Briefly: cells. The conditions noted are these: Homo sapiens, read-out: IC50 value.
Method: as §2, §3
Data set [14] relates to H358 cells. As to conditions: 10 μM erlotinib, 72 hours; maximal growth inhibition greater than 50% = high sensitivity.
Method: as §2, §3

As for `CO[C@H]1C[C@@H]2CC[C@@H](C)[C@@](O)(O2)C(=O)C(=O)N2CCCC[C@H]2C(=O)O[C@H]([C@H](C)C[C@@H]2CC[C@@H](O)[C@H](OC)C2)CC(=O)[C@H](C)/C=C(\C)[C@@H](O)[C@@H](OC)C(=O)[C@H](C)C[C@H](C)/C=C/C=C/C=C/1C` [rapamycin], the “cell lines in a given tumor type that are insensitive” value in data set [1] is recorded as “approximately 50%”. Moreover, in data set [2], the “cancer cell lines in which pAkt (S473) is inhibited” value was around 20% and the “cell lines in which treatment increases pAkt (S473)” value was around 65%. Also, the Emax in data set [3] (Homo sapiens, NCI-H460, rapamycin without erlotinib, read-out: maximal efficacy (growth inhibition)) was 34%. In addition, in data set [3] (Homo sapiens, NCI-H460, rapamycin without erlotinib, read-out: potency (growth inhibition)), the pIC50 is 9.57.

Broadly, the solubility is how much of the substance goes into solution per volume. Low readings indicate a poorly soluble substance, high ones a readily soluble substance. On to `C#Cc1cccc(Nc2ncnc3cc(OCCOC)c(OCCOC)cc23)c1` [erlotinib, [6,7-bis(2-methoxyethoxy)-4-quinazolin-4-yl]-(3-ethynylphenyl) amine], for which the figures for the “apoptosis relative to DMSO treated cells, single agent” value in [4] and in data set [11] were “increased apoptosis” and “modest increase”, respectively. The same compound came in with a solubility in data set [5] of 10 µM (≈ 3.93 µg/mL). In addition, the “sensitivity to growth inhibition by erlotinib” value was “most sensitive” in data set [6]; “most sensitive” in data set [7]; “relatively insensitive” in [8]; “relatively insensitive” in data set [9]; “most sensitive” in [14]; “relatively insensitive” in data set [3] (10 μM erlotinib, 72 hours, maximal growth inhibition greater than 50% = high sensitivity). Further, the “reduction in tumor growth as single agent” value in [10] is on record as “no statistically significant reduction; also recorded: Neither rapamycin or erlotinib showed significant reduction”. Moreover, the “down-regulation of phosphorylation of S6” value in data set [12] (relatively insensitive cell lines that have undergone EMT (H460, Calu6, HCT-116)) is on record as “less pronounced down-regulation”; in [12] (three sensitive epithelial cell lines (H292, H358, BxPC3)) it was “efficiently down-regulate”. Moreover, the pIC50 in [13] was below 5.00.
